Reference: patent US10703764B2, “Benzopiperazine compositions as BET bromodomain inhibitors” (FORMA Therapeutics, Inc., priority 2013, dated 2020)

Legend:
[1] = biological target: T1, BRD4 BD2 (Homo sapiens, UniProt O60885); experiment: AlphaScreen binding assay, BRD4 Bromodomain 2
T1 construct: made in house
Procedure: (§1) The binding of Example compounds to BRD4 Bromodomain 1 and BRD4 Bromodomain 2 was assessed using 384-well AlphaScreen assay technology. His-epitope tagged BRD4 BD144-168 and BRD4 BD2333-460 were cloned, expressed, and purified to homogeneity. BRD4 BD1 and BRD4 BD2 binding and inhibition was assessed by monitoring the engagement of biotinylated Histone H4 (1-21) K5/8/12/16 tetra-acetylated peptide with the targets using the AlphaScreen technology (PerkinElmer). Specifically, in a 384-well black or white flat bottom plate, BRD4 BD1 (50 nM final) or BRD4 BD2 (100 nM final) was combined with peptide (50 nM final for BD1 or 100 nM final for BD2) in 50 mM HEPES (pH 7.3), 100 mM NaCl, 0.1% (w/v) BSA, and 0.01% (w/v) Triton X-100 either in the presence of DMSO (final 1.25% DMSO) or compound dilution series in DMSO. Alpha streptavidin donor beads and Nickel-chelate acceptor beads were added to a final concentration of 10 μg/ml each. After a minimum of 1 hour equilibration, plates were read on a BMG PHERAstar FS multi-label reader (BMG LabTech). The half maximal inhibitory concentration (IC50) values were calculated using IDBS Activity Base software with a four parameter logistic curve fit by the equation y=A+((B−A)/(1+((C/x)^D))), wherein A denotes the bottom plateau of the curve, B denotes the top plateau of the curve, C denotes the x value at the middle of the curve, D denotes the slope factor, x denotes the original known x values, and y denotes the original known y values. Data was fitted using the Levenburg Marquardt algorithm.

[2] = biological target: T2, BRD4 BD1 (Homo sapiens, UniProt O60885); experiment: AlphaScreen binding assay, BRD4 Bromodomain 1
T2 construct: made in house
Procedure: as §1

COc1ccccc1C(=O)N1C[C@H](C)N(C(C)=O)c2ccccc21 [Example I-702]
IC50 [1]: > 500 nM | IC50 [2]: > 10000 nM

CC(=O)N1c2ccc(-c3cccc4c3OCC4)cc2N(C(=O)c2ccco2)C[C@@H]1C [Example I-386]
IC50 [1]: 50 to 500 nM | IC50 [2]: 1000 to 10000 nM

CC(=O)N1c2ccc(-c3ccc(S(C)(=O)=O)cc3)cc2N(C(=O)Nc2ccccc2Cl)C[C@@H]1C [Example I-973]
IC50 [1]: 50 to 500 nM | IC50 [2]: 1000 to 10000 nM

CC(=O)N1c2ccc(-c3cnn(CC(C)(C)O)c3)cc2N(C(=O)Oc2ccccn2)C[C@@H]1C [Example I-1320]
IC50 [1]: 50 to 500 nM | IC50 [2]: 1000 to 10000 nM

CC(=O)N1c2ccc(-c3ccc(-c4cc(C(=O)O)[nH]n4)cc3)cc2N(C(=O)c2ccco2)CC1C (stereo not shown) [Example I-421]
IC50 [1]: < 50 nM | IC50 [2]: 100 to 1000 nM

CC(=O)N1c2ccc(-c3cnn(C4COC4)c3)cc2N(C(=O)OC2CC3(COC3)C2)C[C@@H]1C [Example I-70, 2-oxaspiro[3.3]heptan-6-yl (3S)-4-acetyl-3-methyl-7-[1-(oxetan-3-yl)-1H-pyrazol-4-yl]-1,2,3,4-tetrahydroquinoxaline-1-carboxylate]
IC50 [1]: > 500 nM | IC50 [2]: 1000 to 10000 nM

CC(=O)N1c2ccccc2N(Cc2cccc(OCCN(C)C)c2)C[C@@H]1C [Example I-908]
IC50 [1]: 50 to 500 nM | IC50 [2]: > 10000 nM

CC(=O)N1c2ccccc2N(S(=O)(=O)c2ccc(C)cc2)C[C@@H]1C [Example I-940]
IC50 [1]: > 500 nM | IC50 [2]: > 10000 nM

CC(=O)N1c2ccccc2N(Cc2ccc(C(F)(F)F)nc2)C[C@@H]1C [Example I-911]
IC50 [1]: > 500 nM | IC50 [2]: > 10000 nM

CC(=O)N1c2ccccc2N(C(=O)c2ccc3c(c2)CCO3)C[C@@H]1C [Example I-717]
IC50 [1]: > 500 nM | IC50 [2]: > 10000 nM

CC(=O)N1c2ccccc2N(Cc2ccc(F)cc2F)C[C@@H]1C [Example I-897]
IC50 [1]: > 500 nM | IC50 [2]: > 10000 nM

COc1ccc(OC)c(S(=O)(=O)N2C[C@H](C)N(C(C)=O)c3ccccc32)c1 [Example I-930]
IC50 [1]: > 500 nM | IC50 [2]: > 10000 nM

COC(=O)N1c2ccc(-c3cnn(CC(=O)N4CCCCC4)c3)cc2N(C(=O)OC(C)C)C[C@@H]1C [Example I-629]
IC50 [1]: 50 to 500 nM | IC50 [2]: 1000 to 10000 nM

CC(=O)N1c2ccc(-c3cnn(C4CC4)c3)cc2N(C(=O)Oc2ccc(C)cc2C)C[C@@H]1C [Example I-516]
IC50 [1]: 50 to 500 nM | IC50 [2]: 1000 to 10000 nM

COCC(=O)N1c2ccc(-c3ccc(S(C)(=O)=O)cc3)cc2N(C(=O)c2ccco2)C[C@@H]1C [Example I-368]
IC50 [1]: > 500 nM | IC50 [2]: > 10000 nM

CC(=O)N1c2ccccc2N(S(=O)(=O)c2ccc(OC(F)(F)F)cc2)C[C@@H]1C [Example I-939]
IC50 [1]: > 500 nM | IC50 [2]: > 10000 nM

CC(=O)N1c2ccccc2N(S(=O)(=O)c2cccc(C)c2)C[C@@H]1C [Example I-948]
IC50 [1]: > 500 nM | IC50 [2]: > 10000 nM

CC(=O)N1c2ccccc2N(C(=O)c2ccc(C(C)C)cn2)C[C@@H]1C [Example I-728]
IC50 [1]: > 500 nM | IC50 [2]: > 10000 nM

CC(=O)N1c2ccc(-c3ccc(C#N)cc3)cc2N(C(=O)c2ccco2)C[C@@H]1C [Example I-811]
IC50 [1]: < 50 nM | IC50 [2]: 1000 to 10000 nM

C#CCOC(=O)N1C[C@H](C)N(C(C)=O)c2ccc(-c3ccc(S(C)(=O)=O)cc3)cc21 [Example I-240]
IC50 [1]: 50 to 500 nM | IC50 [2]: 1000 to 10000 nM

CC(=O)N1c2ccccc2N(S(=O)(=O)c2ccccc2C)C[C@@H]1C [Example I-941]
IC50 [1]: > 500 nM | IC50 [2]: > 10000 nM

CC(=O)N1c2ccc(-c3cnn(C4CC4)c3)cc2N(C(=O)Oc2ccc(C#N)cc2Cl)C[C@@H]1C [Example I-528]
IC50 [1]: 50 to 500 nM | IC50 [2]: 1000 to 10000 nM

COc1ccccc1CC(=O)N1C[C@H](C)N(C(C)=O)c2ccccc21 [Example I-711]
IC50 [1]: > 500 nM | IC50 [2]: > 10000 nM

CC(=O)N1c2ccc(Oc3ccccc3)nc2N(C(=O)C2CC2)C[C@@H]1C [Example I-97, (S)-1-(4-(cyclopropanecarbonyl)-2-methyl-6-phenoxy-3,4-dihydropyrido[2,3-b]pyrazin-1(2H)-yl)ethanone]
IC50 [1]: > 500 nM | IC50 [2]: > 10000 nM

CC(=O)N1c2ccc(-c3c(C)noc3C)cc2N(C(=O)c2ccco2)C[C@@H]1C [Example I-816]
IC50 [1]: > 500 nM | IC50 [2]: > 10000 nM

CC(=O)N1c2ccc(-c3cnn(CCS(C)(=O)=O)c3)cc2N(C(=O)Oc2ccccn2)C[C@@H]1C [Example I-1318]
IC50 [1]: 50 to 500 nM | IC50 [2]: 1000 to 10000 nM

CC(=O)N1c2ccc(-c3ccc(S(C)(=O)=O)cc3)cc2N(C(=O)NCC(C)C)C[C@@H]1C [Example I-978]
IC50 [1]: > 500 nM | IC50 [2]: > 10000 nM

CC(=O)N1c2ccc(-c3ccnc(C(F)(F)F)c3)cc2N(C(=O)c2ccco2)C[C@@H]1C [Example I-861]
IC50 [1]: 50 to 500 nM | IC50 [2]: 1000 to 10000 nM

COc1cc(-c2ccc3c(c2)N(C(=O)c2ccco2)C[C@H](C)N3C(C)=O)ccc1F [Example I-828]
IC50 [1]: 50 to 500 nM | IC50 [2]: 1000 to 10000 nM

CC(=O)N1c2ccccc2N(C(=O)c2cc3ccccc3[nH]2)CC1C (stereo not shown) [Example I-730]
IC50 [1]: > 500 nM | IC50 [2]: > 10000 nM

CNC(=O)c1ccc(-c2ccc3c(c2)N(C(=O)c2ccco2)C[C@H](C)N3C(C)=O)cn1 [Example I-836]
IC50 [1]: < 50 nM | IC50 [2]: 1000 to 10000 nM

CC(=O)N1c2ccc(-c3ccc(NS(C)(=O)=O)cc3)cc2N(C(=O)Oc2cccnc2)C[C@@H]1C [Example I-1277]
IC50 [1]: 50 to 500 nM | IC50 [2]: 1000 to 10000 nM

CC(=O)N1c2ccc(-c3ccc(S(C)(=O)=O)cc3)cc2N(C(=O)c2ccco2)CC1CF (stereo not shown) [Example I-7, 1-(2-(fluoromethyl)-4-(furan-2-carbonyl)-6-(4-(methylsulfonyl)phenyl)-3,4-dihydroquinoxalin-1(2H)-yl)ethan-1-one]
IC50 [1]: > 500 nM | IC50 [2]: > 10000 nM

CC(=O)N1c2ccc(-c3cnn(CCC(=O)O)c3)cc2N(C(=O)C2CC2)C[C@@H]1C [Example I-136, (S)-3-(4-(1-acetyl-4-(cyclopropanecarbonyl)-2-methyl-1,2,3,4-tetrahydroquinoxalin-6-yl)-1H-pyrazol-1-yl)propanoic acid]
IC50 [1]: 50 to 500 nM | IC50 [2]: 1000 to 10000 nM

CC(=O)N1c2ccc(-c3ccc(S(C)(=O)=O)cc3)cc2N(C(=O)c2ccc(F)cc2)C[C@@H]1C [Example I-878]
IC50 [1]: 50 to 500 nM | IC50 [2]: > 10000 nM

COc1cccc(CC(=O)N2C[C@H](C)N(C(C)=O)c3ccccc32)c1 [Example I-699]
IC50 [1]: > 500 nM | IC50 [2]: > 10000 nM

COc1ccc(CC(=O)N2C[C@H](C)N(C(C)=O)c3ccccc32)cc1 [Example I-698]
IC50 [1]: > 500 nM | IC50 [2]: > 10000 nM

CC(=O)N1c2ccc(-c3cnc(N)cn3)cc2N(C(=O)C2CC2)C[C@@H]1C [Example I-441]
IC50 [1]: 50 to 500 nM | IC50 [2]: 100 to 1000 nM

CC(=O)N1c2cnc(-c3ccc(S(C)(=O)=O)cc3)cc2N(C(=O)OC(C)C)C[C@@H]1C [Example I-58, isopropyl (S)-4-acetyl-3-methyl-7-(4-(methylsulfonyl)phenyl)-3,4-dihydro pyrido[3,4-b]pyrazine-1 (2H)-carboxylate]
IC50 [1]: > 500 nM | IC50 [2]: 1000 to 10000 nM

COC(=O)N1c2ccc(-c3ccc(N4CCCS4(=O)=O)cc3)cc2N(C(=O)Oc2ccccn2)C[C@@H]1C [Example I-1325]
IC50 [1]: 50 to 500 nM | IC50 [2]: 1000 to 10000 nM

CC(=O)N1c2ccccc2N(Cc2ccccc2)C[C@@H]1C [Example I-909]
IC50 [1]: 50 to 500 nM | IC50 [2]: > 10000 nM
